The structures appear in SMILES notation. Where “and” joins values, the source holds several entries; their conditions need not be identical. Equal values may be shown once.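 Briefly, cells in 96-well plates were exposed to five compound concentrations for 48 h, and endpoints were estimated by linear interpolation. Abbreviation: GI50, concentration required for 50% inhibition of growth. At the TGI there is no net growth.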

Common to all, as to assay: growth of human tumour cells (NCI), 48 h
Experiment [1] relates to UACC-62 melanoma.
Experiment [2] concerns SF-295 CNS.
The test system of experiment [3] is NCI-H226 lung.
Experiment [4] has as its system MDA-MB-231 breast.
Experiment [5] deals with SK-MEL-28 melanoma.
Experiment [6] deals with SK-MEL-5 melanoma.
The subject of experiment [7] is SN12C renal.
Experiment [8] has as its system IGROV1 ovarian.
Experiment [9] concerns HOP-92 NSCLC.
For experiment [10], the system named is NCI/ADR-RES ovarian.

Consider `Cc1c2oc3c(C)cc(F)c(C(=O)NC4C(=O)NC(C(C)C)C(=O)N5CCCC5C(=O)N(C)CC(=O)N(C)C(C(C)C)C(=O)OC4C)c3nc-2c(C(=O)NC2C(=O)NC(C(C)C)C(=O)N3CCCC3C(=O)N(C)CC(=O)N(C)C(C(C)C)C(=O)OC2C)c(N)c1=O` (stereo not given), for which the TGI in [1] is 0.492 µM and 0.154 µM; in experiment [2], 2.32 µM and 4.16 µM; in experiment [3], 0.625 µM and 0.346 µM; in experiment [4] it was 6.8 µM and 2.45 µM; in experiment [5], 1.31 µM and 0.988 µM; in experiment [6], 0.223 µM. The TGI in experiment [7] was more than 100 µM; in [8], more than 100 µM; in experiment [9] it was 0.887 µM; in [10], 91 µM. Besides, the GI50 is 0.0186 µM in experiment [4] and 5.62 µM in [10].

For `COc1ccc(C2C(C#N)=C(S)N(C3OC(CO)C(O)C(O)C3O)C(C)=C2C(C)=O)cc1` (stereo not given), the TGI in experiment [1], in experiment [2], in [3], in experiment [4], in experiment [5] and in [6] was more than 100 µM in each case. In addition, the TGI in [7], in [8], in [9] and in experiment [10] was more than 100 µM each time.

As for `O=c1[nH]c(=O)n(COCc2ccccc2)c2ccccc12`, the TGI in [1], in experiment [2], in [3], in experiment [4], in [5] and in experiment [6] was more than 100 µM throughout. Also, the TGI is more than 100 µM in experiment [7], more than 100 µM in experiment [8], more than 100 µM in [9] and 92.7 µM in [10].

Consider `CN(/N=C/c1ccc(Cl)cc1)C1=NCCCCN1`, for which the TGI in [1], in experiment [2], in experiment [3], in experiment [4], in experiment [6] and in experiment [7] was more than 100 µM in each case. Also, the TGI in experiment [8], in [9] and in experiment [10] was more than 100 µM each time.

For `CC(=O)O[C@H]1C[C@](C)(O)[C@@]23CC([C@@H](OC(=O)C(C)(C)O)[C@@H](OC(C)=O)C2(COC(=O)c2ccccc2)[C@H]1OC(C)=O)C(C)(C)O3` (stereo not given in full), the TGI in experiment [1], in [2], in experiment [4], in experiment [5], in [6] and in experiment [7] was more than 100 µM each time. Also, the TGI in experiment [8], in experiment [9] and in experiment [10] was more than 100 µM in each case.

Take `CC1CCOc2ccc(cc2)C=Nc2ccc(cc2)-c2ccc(cc2)N=Cc2ccc(cc2)OCC1` (stereo not given): the TGI in experiment [2], in experiment [3], in [4], in experiment [5], in experiment [6] and in experiment [7] was more than 100 µM each time. Also, the TGI in [8], in [9] and in experiment [10] was more than 100 µM throughout.

In the case of `COc1cc([C@@H]2c3cc4c(cc3[C@@H](c3c(O)cc(O)c5c3O[C@H](c3ccc(O)c(O)c3)[C@H](OC(=O)c3cc(O)c(O)c(O)c3)C5)[C@H]3COC(=O)[C@H]23)OCO4)cc(OC)c1O`, the TGI is more than 100 µM in experiment [1]; more than 100 µM in experiment [2]; more than 100 µM in experiment [4]; more than 100 µM in experiment [5]; 78.4 µM in experiment [6]; more than 100 µM in [7]. For the same compound, the TGI in experiment [8], in [9] and in experiment [10] was more than 100 µM throughout.

Take `CC(C)(C)OC(=O)n1c(Cl)c(C=O)c2ccccc21`: the TGI in experiment [1] is 43.3 µM; in experiment [2], more than 100 µM; in experiment [4] it was 84.5 µM; in experiment [5] it was more than 100 µM; in experiment [6] it was more than 100 µM; in experiment [7], 54.3 µM. The TGI was more than 100 µM in experiment [8], 56.8 µM in experiment [9] and 58 µM in experiment [10].

With `CCCCOc1ccc2c(c1)CC[C@@H]1[C@@H]2CC[C@]2(C)C(=O)N(CCCC)C(=O)C[C@@H]12`, the TGI in experiment [1], in [2], in experiment [3], in experiment [4], in experiment [6] and in experiment [7] was more than 100 µM in each case. Further, the TGI in experiment [8], in [9] and in experiment [10] was more than 100 µM each time.

As for `COc1cccc([C@@H]2CC(=O)c3cc4c(cc3N2)OCO4)c1`, the TGI in experiment [1], in [2], in experiment [3], in experiment [4], in experiment [5] and in [6] was more than 100 µM each time. Besides, the TGI in [7], in experiment [9] and in experiment [10] was more than 100 µM each time.

With `NCCS(=O)(=O)O`, the TGI in experiment [2], in experiment [3], in [4], in experiment [5], in experiment [6] and in experiment [7] was more than 100 µM each time. In addition, the TGI in [8], in [9] and in experiment [10] was more than 100 µM each time.

Take `CC1C(C#N)(C#N)C(C#N)=C(N)C1(C)[N+](=O)[O-]` (stereo not given): the TGI in experiment [1], in experiment [2], in [3], in experiment [4], in experiment [6] and in experiment [7] was more than 100 µM each time. Also, the values for the TGI in experiment [8], in [9] and in [10] were more than 100 µM, 8.96 µM and more than 100 µM, respectively.

As to `O=C(NNS(=O)(=O)c1ccccc1)c1csc(NC(=S)NC2CCCCC2)n1`, the TGI in experiment [1] was 61.3 µM; in experiment [2] it was more than 100 µM; in experiment [3], more than 100 µM; in experiment [4], 52.6 µM; in [6], 27.6 µM; in experiment [7], 39.3 µM. Moreover, the TGI is 85.1 µM in experiment [8], more than 100 µM in experiment [9] and more than 100 µM in experiment [10].

As to `NC1=Nc2ccccc2Sc2nc3ccccc3n21`, the TGI in experiment [1], in experiment [2], in [3], in experiment [4], in experiment [6] and in experiment [7] was more than 100 µM in each case. Also, the TGI in experiment [8], in [9] and in [10] was more than 100 µM throughout.

Turning to `CN(C)C=NCC(O)c1ccccc1` (stereo not given), the TGI in experiment [1], in experiment [3], in experiment [4], in experiment [5], in [6] and in experiment [7] was more than 100 µM throughout. In addition, the TGI in experiment [8], in experiment [9] and in experiment [10] was more than 100 µM each time.

Turning to `O=C1C=C(O)c2c(O)ccc(O)c2C1=O`, the TGI in experiment [1], in experiment [2], in experiment [3], in experiment [4], in [5] and in [6] was more than 100 µM throughout. Further, the TGI in experiment [8], in [9] and in experiment [10] was more than 100 µM in each case.

Take `N#Cc1ccc2[nH]c3c(c2c1)CC(=O)Nc1ccccc1-3`: the TGI in experiment [1], in experiment [2], in experiment [3], in [4], in experiment [5] and in experiment [6] was more than 100 µM throughout. For the same compound, the TGI in experiment [8], in [9] and in experiment [10] was more than 100 µM each time.

For `COc1cc2[nH]c(=O)c3cc(C)cc4c(Cl)nc(c1OC)c2c43`, the TGI was 96 µM in experiment [1]; more than 100 µM in [2]; more than 100 µM in [3]; more than 100 µM in experiment [4]; more than 100 µM in [5]; more than 100 µM in experiment [6]. In addition, the TGI in [8], in [9] and in [10] was more than 100 µM each time.

For `N#Cc1ccc(C2Oc3ccc(Cl)cc3C=C2[N+](=O)[O-])cc1` (stereo not given), the TGI in experiment [1] stood at 3.09 µM; in [2] it was 9.15 µM; in experiment [3] it was 29.6 µM; in [4] it was 3.63 µM; in experiment [5] it was 3.31 µM; in [6] it was 2.68 µM. Besides, the results for the TGI in [8], in experiment [9] and in [10] were 3.11 µM, 2.83 µM and more than 100 µM, respectively.

Turning to `CO[C@]12CC(=O)C3(C(C[C@H]4CC5CC[C@H]6C[C@@H](OC(C)=O)CC[C@]6(OC(C)=O)C5C[C@@]43C)C1)C1C[C@H]3[C@@H]4CC[C@H]5C[C@@H](OC(C)=O)CC[C@]5(OC(C)=O)[C@H]4CC[C@]3(C)C12` (stereo not given in full), the TGI in experiment [1], in [2], in [4], in experiment [5], in experiment [6] and in experiment [7] was more than 100 µM each time. The TGI in experiment [8], in [9] and in [10] was more than 100 µM in each case.

Values taken from PubChem BioAssay (NCI).
